Results on 5 molecules are retold here after ChEMBL document CHEMBL2021859, “Practical access to four stereoisomers of naftidrofuryl and their binding affinity towards 5-hydroxytryptamine 2A receptor” (Bioorg Med Chem Lett, 2012).

Counter-ions that a name gives are not always drawn.

The test has as its target 5-hydroxytryptamine receptor 2A (Homo sapiens, UniProt P28223). Put plainly: Displacement of [3H]ketanserin from 5HT2A receptor expressed in HEK293 cells by liquid scintillation spectrophotometry. Format: cell-based. (In general: In a radioligand displacement assay an active substance lowers the binding of a labelled ligand.)

5-hydroxytryptamine receptor 2A, sequence (P28223 whole entry): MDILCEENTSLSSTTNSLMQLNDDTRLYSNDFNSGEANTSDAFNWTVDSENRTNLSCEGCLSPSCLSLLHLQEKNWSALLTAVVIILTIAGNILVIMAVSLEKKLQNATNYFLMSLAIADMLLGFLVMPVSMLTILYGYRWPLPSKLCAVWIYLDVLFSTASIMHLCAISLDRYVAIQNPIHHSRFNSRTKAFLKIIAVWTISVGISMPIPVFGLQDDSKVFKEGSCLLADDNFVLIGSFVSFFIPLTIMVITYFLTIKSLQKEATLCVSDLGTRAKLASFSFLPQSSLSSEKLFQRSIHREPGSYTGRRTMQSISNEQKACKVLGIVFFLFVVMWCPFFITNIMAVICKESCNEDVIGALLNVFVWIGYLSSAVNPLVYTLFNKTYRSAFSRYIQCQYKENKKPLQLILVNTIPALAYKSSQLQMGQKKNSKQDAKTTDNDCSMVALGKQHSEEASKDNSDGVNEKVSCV

Consider `CCN(CC)CCOC(=O)[C@@H](Cc1cccc2ccccc12)C[C@@H]1CCCO1`, for which the Ki is 153 nM (read-out: Ki) and 282 nM (read-out: pKi (converted)).
The matching figures for `CCN(CC)CCOC(=O)[C@H](Cc1cccc2ccccc12)C[C@@H]1CCCO1`: 972 nM and 1700 nM.
In the same order, the values of `CCN(CC)CCOC(=O)[C@H](Cc1cccc2ccccc12)C[C@H]1CCCO1` are 2070 nM and 2290 nM.
Turning to `CCN(CC)CCOC(=O)[C@@H](Cc1cccc2ccccc12)C[C@H]1CCCO1`, the Ki by setting is: (read-out: Ki) 150 nM; (read-out: pKi (converted)) 145 nM.
For `CCN(CC)CCOC(=O)C(Cc1cccc2ccccc12)CC1CCCO1` (stereo not given) [NAFRONYL OXALATE], the Ki by setting is: (read-out: Ki) 256 nM; (read-out: pKi (converted)) 331 nM.
